Like-named read-outs stand apart in the source and are kept apart here.
Key:
[1] = Cytotoxicity on Vero cells by neutral red dye-uptake assay; assay type: cell-based; details: African green monkey, Vero cell monolayers, neutral red dye uptake (Table 1)
Method: The cytotoxic effect of standard PA (purity >98%; kindly obtained from University of Chemistry and Technology Prague, Prague, Czech Republic), PA in combination with ACV (Sigma-Aldrich, Berlin, Germany) as well as standard ACV on Vero cells was assessed using the neutral red dye-uptake assay as previously described with slight modification. Briefly, the test compounds were dissolved in 0.2% dimethyl sulfoxide (DMSO). Further, stock solutions were prepared in deionized water and sterilized at a concentration of 620 μM. Vero cell monolayers cultivated in 96-well microtiter plates with two-fold serial dilutions of the test compounds were incubated for 48 h at 37°C in 5% CO2. After incubation, the morphological alterations of the treated cells were assessed using an inverted optical microscope (Leitz, Wetzlar, Germany) and the maximum non-toxic concentrations (MNTC) were determined. The concentrations of test substances that are necessary to decrease the cell viability by 50% (CC50) were assessed as compared with the untreated control cells. In order to acquire statistically relevant data for final evaluation, the cytotoxicity of test compounds was measured in at least three independent experiments conducted in duplicate.

[2] = system: HSV-1 strain KOS; assay: Anti-HSV-1 plaque reduction assay in infected Vero cells; assay type: cell-based, herpes simplex virus type 1 (HSV-1); details: for IC50: 72 h; for SI (CC50/IC50): selectivity index, Vero CC50 / HSV-1 IC50
Method: Vero cells were infected with HSV-1 strain KOS (an ACV-sensitive strain) obtained from MUH, Prague, Czech Republic and propagated in Vero cells. Viral stocks were then titrated based on plaque forming unit (PFU) count by plaque assay as previously described. Viral stocks were stored at −80^◦C for further use.
The inhibitory activity against the replication of HSV-1 was evaluated using a plaque reduction assay as previously described. ACV was used as a reference drug. Briefly, cell monolayers were infected with 100 PFU of HSV-1 in MEM containing 1.5% carboxymethyl cellulose (CMC, Sigma-Aldrich, Berlin, Germany) in the presence or absence of test compounds at different concentrations. Afterward, the cells were subjected to incubation for 72 h at 37 °C, then fixed and stained using naphthol blue-black (Sigma-Aldrich, Berlin, Germany). Subsequently, the plaques were counted. IC50 values (concentrations of test compounds required to decrease the number of plaques by 50%) were determined as compared with untreated control cells. A selectivity index (SI) value was calculated as the ratio CC50/IC50.

[3] = target: T1, HSV-1 DNA polymerase (Human herpesvirus 1, UniProt P04292); assay: Radiolabeled nucleotide-based HSV-1 DNA polymerase inhibition assay; assay type: biochemical; details: for type of inhibition: ascertained with Cheng–Prusoff equation; for IC50: 37 °C, 30 min; for Ki: calculated by Cheng–Prusoff equation
T1 construct: HSV-1 DNA polymerase was extracted from HSV-1-infected Vero cells; made in house; host or cells: Vero cells infected with HSV-1 (KOS strain); virus-encoded native enzyme, purified on DEAE-cellulose and phosphate cellulose columns
Method: HSV-1 DNA polymerase was extracted from HSV-1-infected Vero cells following the procedure as previously designated. Briefly, Vero cells were infected with HSV-1 (KOS strain) at a multiplicity of infection (MOI) equal to 5.0 for 12 h. Afterward, the infected cells were lysed with a buffer containing 0.25 M potassium phosphate (pH = 7.5), 10 mM 2-mercaptoethanol (2-ME), 1mM EDTA, 0.5% Triton X-100, 0.5 mM phenylmethane sulfonylfluoride (PMSF), and 20% glycerol, and subsequently sonicated and centrifuged at 10,000× g for 10 min at 4 °C. The resulting supernatant was additionally centrifuged at 100,000× g for 90 min at 4 °C and the supernatant was dialyzed against 10 mM potassium phosphate (pH = 7.5) with 10 mM 2-ME, 1mM EDTA, and 20% glycerol. Then, the obtained material was eluted in two ion-exchange chromatography columns (DEAE-cellulose and phosphate cellulose) (Sigma-Aldrich, Prague, Czech Republic) supplemented with potassium phosphate ([…]) as previously described.
Extracted HSV-1 DNA polymerase was evaluated for its purity and possible contamination with cellular enzymes such as type B DNA polymerase (α and δ polymerases) using polyclonal antibodies raised against these cellular enzymes following the procedure as previously described. The confirmation of the purity of HSV-1 DNA polymerase was achieved by using a kinetic assay in the presence or absence of ammonium sulfate (100 mM; an inhibitor of possible contaminant cellular polymerases) following the previously reported protocol.
A radiolabeled nucleotide-based assay was used to evaluate the inhibitory properties of PA along with the standard drugs aphidicolin (a known competitive inhibitor of HSV-1 DNA polymerase with respect to dTTP incorporation; purchased from Sigma-Aldrich, Prague, Czech Republic with purity ≥98%) and ACV triphosphate (ACV-TP) (a known competitive inhibitor of HSV-1 DNA polymerase with respect to dGTP incorporation; obtained from Sierra Bioresearch (Tucson, AZ, USA) with purity >98%) against HSV-1 DNA polymerase based on the incorporation of dTTP as a substrate with some modifications. Briefly, the enzyme assay was performed following the first-order kinetics conditions, where the enzymatic reaction initiated by pre-incubating 3 U/mL of HSV-1 DNA polymerase with a mixture containing 50 mM Tris-HCl (pH = 8), MgCl2 (8 mM), DTT (0.5 mM), bovine serum albumin (0.5 µg/mL), ammonium sulfate (100 mM; an inhibitor of possible contaminant cellular polymerases), 100 µM of each nucleotide (dATP, dGTP, dCTP, and [^3H]-dTTP—0.5 µCi/nmol) (obtained from MUH, Prague, Czech Republic) and activated salmon-sperm DNA (12 µg/mL). […] [^3H]-dGTP—0.5 µCi/nmol (obtained from MUH, Prague, Czech Republic) was used when the enzymatic assay was performed with ACV-TP.
The obtained mixture was further incubated with the test compounds (at concentrations ranging from 0.1 to 3 µM) at 37 °C for 30 min and afterward, the reaction was stopped by adding trichloroacetic acid (TCA; 10%). The resulting radioactivity was adsorbed over GF/C fiberglass membranes (Whatman; Sigma-Aldrich, Berlin, Germany) and counted by liquid scintillation (Tri-Carb 2600, Packard Inc., Downers Grove, IL, USA). All measurements were conducted in triplicate and IC50 values were calculated by nonlinear regression. Ki values (inhibition constant; concentration required to produce half maximum inhibition) were calculated using the Cheng–Prusoff equation as previously described.

T1 sequence (P04292 whole entry): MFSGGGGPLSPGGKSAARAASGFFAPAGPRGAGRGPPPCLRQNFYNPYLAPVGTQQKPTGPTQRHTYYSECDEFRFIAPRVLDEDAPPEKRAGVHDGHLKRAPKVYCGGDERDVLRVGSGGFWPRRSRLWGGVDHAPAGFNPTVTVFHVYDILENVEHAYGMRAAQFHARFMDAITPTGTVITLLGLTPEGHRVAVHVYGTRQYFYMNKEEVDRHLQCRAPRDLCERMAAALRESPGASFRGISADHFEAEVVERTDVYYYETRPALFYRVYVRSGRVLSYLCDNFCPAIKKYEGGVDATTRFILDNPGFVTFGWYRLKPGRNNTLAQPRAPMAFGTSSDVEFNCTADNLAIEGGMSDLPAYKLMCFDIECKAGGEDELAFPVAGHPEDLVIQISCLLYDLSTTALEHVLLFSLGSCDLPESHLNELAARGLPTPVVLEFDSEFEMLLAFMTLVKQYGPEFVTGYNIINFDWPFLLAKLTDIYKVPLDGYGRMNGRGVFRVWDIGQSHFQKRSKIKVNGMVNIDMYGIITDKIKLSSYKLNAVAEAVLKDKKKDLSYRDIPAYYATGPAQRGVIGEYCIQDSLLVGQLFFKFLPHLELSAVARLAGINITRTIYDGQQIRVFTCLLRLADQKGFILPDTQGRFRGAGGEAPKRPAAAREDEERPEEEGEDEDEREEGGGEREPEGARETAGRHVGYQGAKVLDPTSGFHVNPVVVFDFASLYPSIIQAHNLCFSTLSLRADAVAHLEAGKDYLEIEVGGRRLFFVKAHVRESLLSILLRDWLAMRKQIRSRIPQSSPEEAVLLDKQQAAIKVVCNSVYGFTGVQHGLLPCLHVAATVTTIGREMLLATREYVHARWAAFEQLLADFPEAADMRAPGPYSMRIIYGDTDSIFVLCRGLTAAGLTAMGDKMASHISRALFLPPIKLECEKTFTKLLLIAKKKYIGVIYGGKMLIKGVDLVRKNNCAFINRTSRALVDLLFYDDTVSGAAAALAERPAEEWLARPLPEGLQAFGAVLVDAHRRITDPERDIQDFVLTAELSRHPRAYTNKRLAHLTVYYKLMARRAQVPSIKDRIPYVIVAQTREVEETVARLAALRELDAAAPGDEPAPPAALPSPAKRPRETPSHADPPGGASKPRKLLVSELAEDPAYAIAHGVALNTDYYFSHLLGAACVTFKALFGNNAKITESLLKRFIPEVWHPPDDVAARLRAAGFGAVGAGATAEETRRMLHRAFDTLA

Nc1nc2c(ncn2COCCO)c(=O)[nH]1 [ACV, acyclovir]
CC50 at 48 h [1]: > 310000 nM | IC50 ([2]; Human alphaherpesvirus 1, HSV-1 replication, plaque reduction, Vero cells, read-out: IC50): 2600 ± 380 nM | SI (CC50/IC50) [2]: >119.2

Nc1nc2c(ncn2COCCOP(=O)(O)OP(=O)(O)OP(=O)(O)O)c(=O)[nH]1 [ACV-TP, acyclovir triphosphate]
type of inhibition [3]: competitive inhibitors | IC50 ([3]; with respect to dGTP incorporation ([3H]-dGTP)): 900 ± 630 nM | Ki ([3]; with respect to dGTP incorporation): 500 ± 340 nM

COc1cc(C(=O)O)c2c(c1C)OC(=O)c1c(C)cc(O)c(C=O)c1O2 [PA, Psoromic acid]
CC50 at 48 h [1]: > 310000 nM | IC50 ([2]; Human alphaherpesvirus 1, Vero): 1900 ± 420 nM | SI (CC50/IC50) [2]: >163.2 | type of inhibition [3]: competitive inhibitors | IC50 ([3]; with respect to dTTP incorporation ([3H]-dTTP)): 700 ± 510 nM | Ki ([3]; with respect to dTTP incorporation): 300 ± 420 nM

— article PMC6720901, “Psoromic Acid, a Lichen-Derived Molecule, Inhibits the Replication of HSV-1 and HSV-2, and Inactivates HSV-1 DNA Polymerase: Shedding Light on Antiherpetic Properties” (Molecules, 2019)
